Earlier results, collected in patent US20250339408A1, “TREATMENT AND PREVENTION OF BASAL CELL CARCINOMA WITH TOPICAL COMPOSITION COMPRISING PATIDEGIB” (Sol-Gel Technologies Ltd., priority 2023, published 2025).

Tested on: patients with Gorlin Syndrome
Details: oral drugs; with and without PTCH1 mutation; cited from earlier work

For `Cc1c(C(=O)Nc2ccc(N3C[C@@H](C)O[C@@H](C)C3)nc2)cccc1-c1ccc(OC(F)(F)F)cc1` [Sonidegib], the “Effect in patients with Gorlin Syndrome (in words)” value is listed as “known to effect patients with Gorlin Syndrome, both with and without PTCH1 mutation”.

For `CS(=O)(=O)c1ccc(C(=O)Nc2ccc(Cl)c(-c3ccccn3)c2)c(Cl)c1` [Vismodegib], the “Effect in patients with Gorlin Syndrome (in words)” value is given as “known to effect patients with Gorlin Syndrome, both with and without PTCH1 mutation”.
